{"source": "ChEMBL document CHEMBL5291721", "about": "“A preclinical secondary pharmacology resource illuminates target-adverse drug reaction associations of marketed drugs” (Nat Commun, 2023)", "key": {"[1]": {"molecular_target": "5-hydroxytryptamine receptor 5A (Homo sapiens, UniProt P47898)", "sequence (P47898 whole entry)": "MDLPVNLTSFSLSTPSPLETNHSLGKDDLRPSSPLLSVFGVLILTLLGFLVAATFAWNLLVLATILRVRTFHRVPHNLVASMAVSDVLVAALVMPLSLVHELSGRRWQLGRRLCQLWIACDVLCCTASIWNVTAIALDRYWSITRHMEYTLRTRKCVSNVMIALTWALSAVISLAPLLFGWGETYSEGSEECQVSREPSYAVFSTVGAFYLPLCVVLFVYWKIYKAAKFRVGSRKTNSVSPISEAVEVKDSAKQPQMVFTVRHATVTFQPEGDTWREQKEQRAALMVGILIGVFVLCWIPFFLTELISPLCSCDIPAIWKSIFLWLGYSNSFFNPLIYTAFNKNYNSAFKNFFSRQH"}, "D(1B) dopamine receptor": {"molecular_target": "D(1B) dopamine receptor (Homo sapiens, UniProt P21918)", "sequence (P21918 whole entry)": "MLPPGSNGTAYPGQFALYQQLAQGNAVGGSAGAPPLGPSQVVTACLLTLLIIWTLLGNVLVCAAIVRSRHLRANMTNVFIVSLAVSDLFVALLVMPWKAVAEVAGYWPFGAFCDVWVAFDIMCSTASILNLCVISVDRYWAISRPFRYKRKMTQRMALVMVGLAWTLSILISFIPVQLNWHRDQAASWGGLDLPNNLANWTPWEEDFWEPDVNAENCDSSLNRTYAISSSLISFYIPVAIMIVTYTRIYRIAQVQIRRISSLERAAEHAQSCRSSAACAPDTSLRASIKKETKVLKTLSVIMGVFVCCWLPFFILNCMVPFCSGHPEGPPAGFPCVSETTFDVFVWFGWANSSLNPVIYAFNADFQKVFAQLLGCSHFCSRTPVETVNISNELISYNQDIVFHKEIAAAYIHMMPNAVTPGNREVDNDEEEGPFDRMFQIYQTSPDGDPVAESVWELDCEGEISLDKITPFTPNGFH"}, "Glucocorticoid receptor [2]": {"molecular_target": "T1, Glucocorticoid receptor (Homo sapiens, UniProt P04150)", "T1 sequence (P04150 whole entry)": "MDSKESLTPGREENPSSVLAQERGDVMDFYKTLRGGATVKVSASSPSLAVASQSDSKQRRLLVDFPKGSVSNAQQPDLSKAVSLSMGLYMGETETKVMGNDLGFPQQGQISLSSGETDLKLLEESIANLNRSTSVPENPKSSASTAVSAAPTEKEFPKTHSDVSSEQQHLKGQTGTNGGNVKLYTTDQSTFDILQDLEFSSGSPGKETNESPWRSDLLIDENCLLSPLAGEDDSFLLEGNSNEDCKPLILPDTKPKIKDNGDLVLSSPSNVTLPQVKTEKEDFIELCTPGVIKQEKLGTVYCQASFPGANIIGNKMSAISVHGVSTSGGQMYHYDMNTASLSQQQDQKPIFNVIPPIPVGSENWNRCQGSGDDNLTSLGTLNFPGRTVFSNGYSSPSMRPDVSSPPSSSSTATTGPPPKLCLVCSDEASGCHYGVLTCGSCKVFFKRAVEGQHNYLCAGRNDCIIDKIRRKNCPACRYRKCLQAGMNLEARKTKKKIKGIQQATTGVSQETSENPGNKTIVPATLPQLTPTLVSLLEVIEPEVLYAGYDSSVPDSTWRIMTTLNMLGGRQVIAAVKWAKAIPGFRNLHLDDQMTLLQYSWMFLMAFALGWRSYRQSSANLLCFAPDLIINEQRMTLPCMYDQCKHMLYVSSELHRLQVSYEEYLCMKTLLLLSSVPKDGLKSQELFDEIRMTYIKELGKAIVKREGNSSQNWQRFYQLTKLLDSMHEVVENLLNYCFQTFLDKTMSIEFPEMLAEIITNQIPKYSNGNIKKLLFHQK", "assay_type": "functional"}, "Glucocorticoid receptor [3]": {"molecular_target": "T1, Glucocorticoid receptor", "assay_type": "functional", "remark": "listed apart in the source"}, "Thromboxane A2 receptor [4]": {"molecular_target": "T2, Thromboxane A2 receptor (Homo sapiens, UniProt P21731)", "T2 sequence (P21731 whole entry)": "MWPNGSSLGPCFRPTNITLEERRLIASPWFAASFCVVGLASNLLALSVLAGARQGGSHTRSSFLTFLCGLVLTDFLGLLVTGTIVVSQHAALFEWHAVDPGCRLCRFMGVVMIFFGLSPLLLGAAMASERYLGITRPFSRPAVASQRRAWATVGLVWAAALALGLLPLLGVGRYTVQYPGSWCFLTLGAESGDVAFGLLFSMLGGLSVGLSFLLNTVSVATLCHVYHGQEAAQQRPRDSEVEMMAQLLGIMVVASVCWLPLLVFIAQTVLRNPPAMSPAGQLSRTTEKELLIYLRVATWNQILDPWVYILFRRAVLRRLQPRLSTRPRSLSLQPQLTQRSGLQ", "assay_type": "functional, cell-based"}, "Thromboxane A2 receptor [5]": {"molecular_target": "T2, Thromboxane A2 receptor", "assay_type": "functional"}, "[6]": {"molecular_target": "T3, Type-1 angiotensin II receptor (Homo sapiens, UniProt P30556)", "T3 sequence (P30556 whole entry)": "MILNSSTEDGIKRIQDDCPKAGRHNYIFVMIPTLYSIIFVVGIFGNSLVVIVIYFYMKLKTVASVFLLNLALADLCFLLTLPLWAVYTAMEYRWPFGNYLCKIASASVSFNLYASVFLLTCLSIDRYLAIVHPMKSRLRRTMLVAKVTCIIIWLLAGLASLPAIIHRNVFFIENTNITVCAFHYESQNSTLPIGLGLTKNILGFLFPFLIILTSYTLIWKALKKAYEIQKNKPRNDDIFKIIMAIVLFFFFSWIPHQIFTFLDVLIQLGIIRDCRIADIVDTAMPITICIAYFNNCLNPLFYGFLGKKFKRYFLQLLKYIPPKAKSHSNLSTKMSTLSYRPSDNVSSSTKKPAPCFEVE"}, "[7]": {"molecular_target": "T3, Type-1 angiotensin II receptor", "remark": "listed apart in the source"}, "[8]": {"molecular_target": "T4, 5-hydroxytryptamine receptor 1A (Homo sapiens, UniProt P08908)", "T4 sequence (P08908 whole entry)": "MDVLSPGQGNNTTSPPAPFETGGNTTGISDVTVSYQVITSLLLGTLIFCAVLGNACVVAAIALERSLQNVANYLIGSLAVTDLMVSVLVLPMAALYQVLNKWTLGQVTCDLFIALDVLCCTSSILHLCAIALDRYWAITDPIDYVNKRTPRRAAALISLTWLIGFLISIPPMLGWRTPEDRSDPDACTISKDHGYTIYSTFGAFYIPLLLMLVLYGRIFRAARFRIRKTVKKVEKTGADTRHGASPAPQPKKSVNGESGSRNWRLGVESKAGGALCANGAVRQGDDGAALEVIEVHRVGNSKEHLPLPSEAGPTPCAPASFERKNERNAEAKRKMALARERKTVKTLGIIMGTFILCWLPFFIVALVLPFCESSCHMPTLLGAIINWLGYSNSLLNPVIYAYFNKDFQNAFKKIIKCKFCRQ"}, "[9]": {"molecular_target": "T5, Muscarinic acetylcholine receptor M2 (Homo sapiens, UniProt P08172)", "T5 sequence (P08172 whole entry)": "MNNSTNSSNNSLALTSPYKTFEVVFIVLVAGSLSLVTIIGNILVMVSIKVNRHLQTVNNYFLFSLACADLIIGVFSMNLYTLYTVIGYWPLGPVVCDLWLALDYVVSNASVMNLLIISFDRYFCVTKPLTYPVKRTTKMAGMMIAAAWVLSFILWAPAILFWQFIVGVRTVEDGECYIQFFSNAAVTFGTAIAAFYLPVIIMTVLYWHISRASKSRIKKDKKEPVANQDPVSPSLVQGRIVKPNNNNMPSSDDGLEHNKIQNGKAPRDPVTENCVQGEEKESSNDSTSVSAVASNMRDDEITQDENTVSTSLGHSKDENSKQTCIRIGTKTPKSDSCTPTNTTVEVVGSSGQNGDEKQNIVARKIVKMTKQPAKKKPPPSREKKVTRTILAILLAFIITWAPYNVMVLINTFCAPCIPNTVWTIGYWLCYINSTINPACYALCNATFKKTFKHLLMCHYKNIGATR"}, "[10]": {"molecular_target": "Hydroxycarboxylic acid receptor 2 (Homo sapiens, UniProt Q8TDS4)", "sequence (Q8TDS4 whole entry)": "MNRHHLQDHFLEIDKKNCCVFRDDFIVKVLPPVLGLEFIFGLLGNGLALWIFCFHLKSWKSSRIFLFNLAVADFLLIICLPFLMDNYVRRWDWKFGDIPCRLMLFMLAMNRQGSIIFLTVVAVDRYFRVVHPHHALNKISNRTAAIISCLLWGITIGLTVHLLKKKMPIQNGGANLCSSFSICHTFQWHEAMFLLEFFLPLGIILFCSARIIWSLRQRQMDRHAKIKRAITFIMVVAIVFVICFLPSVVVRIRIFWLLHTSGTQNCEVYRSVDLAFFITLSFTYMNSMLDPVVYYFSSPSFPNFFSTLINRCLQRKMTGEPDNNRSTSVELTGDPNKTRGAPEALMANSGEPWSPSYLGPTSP"}}, "note": "Where “and” joins values, the source holds several entries; their conditions need not be identical. Equal entries are not always repeated. Further: assay procedure not described here.", "data": [{"smiles": "N#Cc1ccc([C@H]2CCc3cncn32)c(F)c1", "note": "[OSILODROSTAT]", "values": [{"measurement": "AC50", "setting": "[1]", "value": "> 10", "unit": "µM"}, {"measurement": "AC50", "setting": "D(1B) dopamine receptor", "value": "> 10", "unit": "µM"}]}, {"smiles": "CC(=O)O[C@H]1CC[C@@]2(C)C(=CC[C@@H]3[C@@H]2CC[C@]2(C)C(c4cccnc4)=CC[C@@H]32)C1", "note": "[ABIRATERONE ACETATE]", "values": [{"measurement": "AC50", "setting": "Glucocorticoid receptor [2]", "value": "> 30", "unit": "µM"}, {"measurement": "AC50", "setting": "Glucocorticoid receptor [3]", "value": "> 30", "unit": "µM"}]}, {"smiles": "CC(C)OC(=O)CCC/C=C\\C[C@@H]1[C@@H](CC[C@@H](O)CCc2ccccc2)[C@H](O)C[C@@H]1O", "note": "[LATANOPROST]", "values": [{"measurement": "AC50", "setting": "Thromboxane A2 receptor [4]", "value": "> 10", "unit": "µM"}, {"measurement": "AC50", "setting": "Thromboxane A2 receptor [5]", "value": "> 10", "unit": "µM"}]}, {"smiles": "CCCCc1ncc(/C=C(\\Cc2cccs2)C(=O)O)n1Cc1ccc(C(=O)O)cc1", "note": "[EPROSARTAN]", "values": [{"measurement": "AC50", "setting": "[6]", "value": "0.005 µM and 0.0055 µM"}, {"measurement": "AC50", "setting": "[7]", "value": 0.0042, "unit": "µM"}, {"measurement": "AC50", "setting": "[1]", "value": "> 10", "unit": "µM"}, {"measurement": "AC50", "setting": "D(1B) dopamine receptor", "value": "> 10", "unit": "µM"}]}, {"smiles": "CCCc1nc(C(C)(C)O)c(C(=O)OCc2oc(=O)oc2C)n1Cc1ccc(-c2ccccc2-c2nnn[nH]2)cc1", "note": "[OLMESARTAN MEDOXOMIL]", "values": [{"measurement": "AC50", "setting": "[7]", "value": 0.0017, "unit": "µM"}]}, {"smiles": "C/C(O)=C(\\C#N)C(=O)Nc1ccc(C(F)(F)F)cc1", "note": "[TERIFLUNOMIDE]", "values": [{"measurement": "AC50", "setting": "Glucocorticoid receptor [2]", "value": "> 10", "unit": "µM"}, {"measurement": "AC50", "setting": "Glucocorticoid receptor [3]", "value": "> 30", "unit": "µM"}]}, {"smiles": "COc1ccccc1N1CCN(CCCNc2cc(=O)n(C)c(=O)n2C)CC1", "values": [{"measurement": "AC50", "setting": "[8]", "value": 0.26, "unit": "µM"}]}, {"smiles": "CC(C[N+](C)(C)C)OC(N)=O", "note": "(configuration not stated) [BETHANECHOL]", "values": [{"measurement": "AC50", "setting": "[9]", "value": "> 30", "unit": "µM"}]}, {"smiles": "CCCN(CCC)C(=O)C(CCC(=O)O)NC(=O)c1ccccc1", "note": "(configuration not stated) [PROGLUMIDE]", "values": [{"measurement": "AC50", "setting": "[10]", "value": "> 10", "unit": "µM"}]}, {"smiles": "CN1C(=O)C(O)N=C(c2ccccc2)c2cc(Cl)ccc21", "note": "(configuration not stated) [TEMAZEPAM]", "values": [{"measurement": "AC50", "setting": "[10]", "value": "> 10", "unit": "µM"}]}]}
